# Test results published in patent US12478617B2, “Lipidated peptide inhibitors of interleukin-23 receptor” (JANSSEN BIOTECH, INC., priority 2021, dated 2025).
# Starred links: 1 amine or outer side, 2 acyl side, 3 side chain; linkers in the order of their positions; H or OH if unused. Positions of bridges follow the written chain, without caps; N, C: chain ends. Non-standard residues stand in square brackets, D forms with d. Residues, ends and D or L forms follow the SMILES beside them. Groups on a side chain read outwards from the residue. *: point of attachment. Trp(7-Me) = Cc1cccc2c(C[C@H](N)C(=O)O)c[nH]c12; C18 diacid = O=C(O)CCCCCCCCCCCCCCCCC(=O)*; C16 diacid = O=C(O)CCCCCCCCCCCCCCC(=O)*; γGlu = O=C(O)[C@H](CCC(=O)[*:2])N[*:1]; 2Nal = N[C@@H](Cc1ccc2ccccc2c1)C(=O)O; AEF = NCCOc1ccc(C[C@H](N)C(=O)O)cc1; PEG6 = NCCOCCOCCOCCOCCOCCOCCC(=O)O; Stearoyl = CCCCCCCCCCCCCCCCCC(=O)*; 3Pal = N[C@@H](Cc1cccnc1)C(=O)O; NMeK = CN[C@@H](CCCCN)C(=O)O; Pen = CC(C)(S)[C@H](N)C(=O)O; Thp = NC1(C(=O)O)CCOCC1; AEEA = NCCOCCOCC(=O)O; Sar = CNCC(=O)O
# Target: T1, IL-23R (Homo sapiens, UniProt Q5VWK5)
# T1 construct: HEK293 cells containing IL-23R, IL-12RP31 and a firefly luciferase reporter gene driven by a STAT-inducible promoter (Promega); host or cells: HEK293
# T1 sequence (Q5VWK5 24-629): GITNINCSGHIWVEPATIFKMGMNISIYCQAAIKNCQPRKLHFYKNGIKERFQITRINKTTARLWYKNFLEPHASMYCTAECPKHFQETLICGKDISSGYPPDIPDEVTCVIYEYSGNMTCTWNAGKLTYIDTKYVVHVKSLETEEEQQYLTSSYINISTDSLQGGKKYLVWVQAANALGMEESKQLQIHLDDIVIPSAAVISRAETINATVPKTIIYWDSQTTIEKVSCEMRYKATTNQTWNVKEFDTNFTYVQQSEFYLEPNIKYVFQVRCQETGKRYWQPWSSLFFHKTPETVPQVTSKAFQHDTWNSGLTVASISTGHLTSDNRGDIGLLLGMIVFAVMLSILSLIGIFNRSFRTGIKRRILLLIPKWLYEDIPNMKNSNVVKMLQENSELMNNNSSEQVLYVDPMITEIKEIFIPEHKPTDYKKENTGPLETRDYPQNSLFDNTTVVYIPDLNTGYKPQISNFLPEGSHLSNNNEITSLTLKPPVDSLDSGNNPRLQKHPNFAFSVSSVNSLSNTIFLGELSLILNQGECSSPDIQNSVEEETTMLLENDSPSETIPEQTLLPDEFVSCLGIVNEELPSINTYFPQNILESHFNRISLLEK
# Assay: IL23R Reporter Assay
# Type: cell-based
# In short: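 Reporter cells read out IL-23-driven STAT3 activation; compounds were serially diluted in DMSO. After 5 h at 37 °C, 5% CO2, cells were brought to 20 °C and luminescence was measured with BioGlo reagent.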
row,SMILES,IC50 [nM]
1,"CC(=O)NCCCC[C@@H]1NC(=O)[C@H](Cc2c[nH]c3c(C)cccc23)NC(=O)[C@H]([C@@H](C)O)NC(=O)[C@H](CC(N)=O)NC(=O)[C@@H](NC(=O)[C@@H](CCCNC(=N)N)NC(=O)COCCOCCNC(=O)COCCOCCNC(=O)CC[C@H](NC(=O)CCCCCCCCCCCCCCC(=O)O)C(=O)O)C(C)(C)SSC(C)(C)[C@@H](C(=O)N[C@@H](Cc2ccc(OCCN)cc2)C(=O)N[C@@H](Cc2ccc3ccccc3c2)C(=O)NC2(C(=O)N[C@@H](CCCCNC(C)=O)C(=O)N[C@@H](CC(N)=O)C(=O)N[C@@H](Cc3cccnc3)C(=O)N(C)CC(N)=O)CCOCC2)NC1=O [Example 24, HOC16gEPEG2PEG2-r-Pen*-N-T-7MeW-K(Ac)-Pen*-AEF-2Nal-THP-K(Ac)-N-3Pya-Sar-CONH2] ({C16 diacid-γGlu-AEEA-AEEA}-[dR][Pen]NT[Trp(7-Me)]K(Ac)[Pen][AEF][2Nal][Thp]K(Ac)N[3Pal][Sar]-NH2; disulfide 2-7)",0.017
2,"CC(=O)NCCCC[C@@H]1NC(=O)[C@H](Cc2c[nH]c3c(C)cccc23)NC(=O)[C@H]([C@@H](C)O)NC(=O)[C@H](CC(N)=O)NC(=O)[C@@H](NC(=O)[C@@H](CCCNC(=N)N)NC(C)=O)C(C)(C)SSC(C)(C)[C@@H](C(=O)N[C@@H](Cc2ccc(OCCNC(=O)COCCOCCNC(=O)COCCOCCNC(=O)CC[C@H](NC(=O)CCCCCCCCCCCCCCC(=O)O)C(=O)O)cc2)C(=O)N[C@@H](Cc2ccc3ccccc3c2)C(=O)NC2(C(=O)N[C@@H](CCCCNC(C)=O)C(=O)N[C@@H](CC(N)=O)C(=O)N[C@@H](Cc3cccnc3)C(=O)N(C)CC(N)=O)CCOCC2)NC1=O [Example 26, MeCO-r-Pen*-N-T-7MeW-K(Ac)-Pen*-AEF(PEG2PEG2gEC16OH)-2Nal-THP-K(Ac)-N-3Pya-Sar-CONH2] (Ac-[dR][Pen]NT[Trp(7-Me)]K(Ac)[Pen][AEF]([AEEA-AEEA-γGlu-C16 diacid])[2Nal][Thp]K(Ac)N[3Pal][Sar]-NH2; disulfide 2-7)",0.025
3,"CC(=O)NCCCC[C@@H]1NC(=O)[C@H](Cc2c[nH]c3c(C)cccc23)NC(=O)[C@H]([C@@H](C)O)NC(=O)[C@H](CC(N)=O)NC(=O)[C@@H](NC(C)=O)C(C)(C)SSC(C)(C)[C@@H](C(=O)N[C@@H](Cc2ccc(OCCN)cc2)C(=O)N[C@@H](Cc2ccc3ccccc3c2)C(=O)NC2(C(=O)N[C@@H](CCCCNC(=O)COCCOCCNC(=O)CC[C@H](NC(=O)CCCCCCCCCCCCCCC(=O)O)C(=O)O)C(=O)N[C@@H](CC(N)=O)C(=O)N[C@@H](Cc3cccnc3)C(=O)N(C)CC(N)=O)CCOCC2)NC1=O [Example 34, MeCO-Pen*-N-T-7MeW-K(Ac)-Pen*-AEF-2Nal-THP-K(PEG2gEC16OH)-N-3Pya-Sar-CONH2] (Ac-[Pen]NT[Trp(7-Me)]K(Ac)[Pen][AEF][2Nal][Thp]K([AEEA-γGlu-C16 diacid])N[3Pal][Sar]-NH2; disulfide 1-6)",0.065
4,"CC(=O)NCCCC[C@@H]1NC(=O)[C@H](Cc2c[nH]c3c(C)cccc23)NC(=O)[C@H]([C@@H](C)O)NC(=O)[C@H](CC(N)=O)NC(=O)[C@@H](NC(C)=O)C(C)(C)SSC(C)(C)[C@@H](C(=O)N[C@@H](Cc2ccc(OCCN)cc2)C(=O)N[C@@H](Cc2ccc3ccccc3c2)C(=O)NC2(C(=O)N[C@@H](CCCCNC(=O)CCOCCOCCOCCOCCOCCOCCNC(=O)CCOCCOCCOCCOCCOCCOCCNC(=O)CC[C@H](NC(=O)CCCCCCCCCCCCCCC(=O)O)C(=O)O)C(=O)N[C@@H](CC(N)=O)C(=O)N[C@@H](Cc3cccnc3)C(=O)N(C)CC(N)=O)CCOCC2)NC1=O [Example 42, MeCO-Pen*-N-T-7MeW-K(Ac)-Pen*-AEF-2Nal-THP-K(PEG6PEG6gEC16OH)-N-3Pya-Sar-CONH2] (Ac-[Pen]NT[Trp(7-Me)]K(Ac)[Pen][AEF][2Nal][Thp]K([PEG6-PEG6-γGlu-C16 diacid])N[3Pal][Sar]-NH2; disulfide 1-6)",0.029
5,"CC(=O)NCCCC[C@@H]1NC(=O)[C@H](Cc2c[nH]c3c(C)cccc23)NC(=O)[C@H]([C@@H](C)O)NC(=O)[C@H](CC(N)=O)NC(=O)[C@@H](NC(=O)[C@@H](CCCNC(=N)N)NC(C)=O)C(C)(C)SSC(C)(C)[C@@H](C(=O)N[C@@H](Cc2ccc(OCCN)cc2)C(=O)N[C@@H](Cc2ccc3ccccc3c2)C(=O)NC2(C(=O)N[C@@H](CCC(=O)O)C(=O)N[C@@H](CC(N)=O)C(=O)N[C@@H](Cc3cccnc3)C(=O)N(C)[C@@H](CCCCNC(=O)COCCOCCNC(=O)COCCOCCNC(=O)CC[C@H](NC(=O)CCCCCCCCCCCCCCC(=O)O)C(=O)O)C(N)=O)CCOCC2)NC1=O [Example 22, MeCO-r-Pen*-N-T-7MeW-K(Ac)-Pen*-AEF-2Nal-THP-E-N-3Pya-NMeK(PEG2PEG2gEC16OH)-CONH2] (Ac-[dR][Pen]NT[Trp(7-Me)]K(Ac)[Pen][AEF][2Nal][Thp]EN[3Pal][NMeK]([AEEA-AEEA-γGlu-C16 diacid])-NH2; disulfide 2-7)",0.026
6,"CCCCCCCCCCCCCCCCCC(=O)N[C@@H](CCC(=O)NCCCC[C@H](NC(=O)C1(NC(=O)[C@H](Cc2ccc3ccccc3c2)NC(=O)[C@H](Cc2ccc(OCCN)cc2)NC(=O)[C@H]2NC(=O)[C@H](CCCCNC(C)=O)NC(=O)[C@H](Cc3c[nH]c4c(C)cccc34)NC(=O)[C@H]([C@@H](C)O)NC(=O)[C@H](CC(N)=O)NC(=O)[C@@H](NC(C)=O)C(C)(C)SSC2(C)C)CCOCC1)C(=O)N[C@@H](CC(N)=O)C(=O)N[C@@H](Cc1cccnc1)C(=O)N(C)CC(N)=O)C(=O)O [Example 31, MeCO-Pen*-N-T-7MeW-K(Ac)-Pen*-AEF-2Nal-THP-K(gEC18)-N-3Pya-Sar-CONH2] (Ac-[Pen]NT[Trp(7-Me)]K(Ac)[Pen][AEF][2Nal][Thp]K([γGlu-Stearoyl])N[3Pal][Sar]-NH2; disulfide 1-6)",0.052
7,"CC(=O)NCCCC[C@@H]1NC(=O)[C@H](Cc2c[nH]c3c(C)cccc23)NC(=O)[C@H]([C@@H](C)O)NC(=O)[C@H](CC(N)=O)NC(=O)[C@@H](NC(=O)[C@@H](CCCNC(=N)N)NC(C)=O)C(C)(C)SSC(C)(C)[C@@H](C(=O)N[C@@H](Cc2ccc(OCCN)cc2)C(=O)N[C@@H](Cc2ccc3ccccc3c2)C(=O)NC2(C(=O)N[C@@H](CCCCNC(=O)COCCOCCNC(=O)COCCOCCNC(=O)[C@H]3CCCN3C(=O)CCCCCCCCCCCCCCCCC(=O)O)C(=O)N[C@@H](CC(N)=O)C(=O)N[C@@H](Cc3cccnc3)C(=O)N(C)CC(N)=O)CCOCC2)NC1=O [Example 57, MeCO-r-Pen*-N-T-7MeW-K(Ac)-Pen*-AEF-2Nal-THP-K(PEG2PEG2pC18OH)-N-3Pya-Sar-CONH2] (Ac-[dR][Pen]NT[Trp(7-Me)]K(Ac)[Pen][AEF][2Nal][Thp]K([AEEA-AEEA-dP-C18 diacid])N[3Pal][Sar]-NH2; disulfide 2-7)",0.3
8,"CC(=O)NCCCC[C@@H]1NC(=O)[C@H](Cc2c[nH]c3c(C)cccc23)NC(=O)[C@H]([C@@H](C)O)NC(=O)[C@H](CC(N)=O)NC(=O)[C@@H](NC(=O)[C@@H](CCCNC(=N)N)NC(C)=O)C(C)(C)SSC(C)(C)[C@@H](C(=O)N[C@@H](Cc2ccc(OCCN)cc2)C(=O)N[C@@H](Cc2ccc3ccccc3c2)C(=O)NC2(C(=O)N[C@@H](CCCCNC(=O)COCCOCCNC(=O)COCCOCCNC(=O)CC[C@H](NC(=O)CCCCCCCCCCCCCCCCC(=O)O)C(=O)O)C(=O)N[C@@H](CC(N)=O)C(=O)N[C@@H](Cc3cccnc3)C(=O)N(C)CC(N)=O)CCOCC2)NC1=O [Example 27, MeCO-r-Pen*-N-T-7MeW-K(Ac)-Pen*-AEF-2Nal-THP-K(PEG2PEG2gEC18OH)-N-3Pya-Sar-CONH2] (Ac-[dR][Pen]NT[Trp(7-Me)]K(Ac)[Pen][AEF][2Nal][Thp]K([AEEA-AEEA-γGlu-C18 diacid])N[3Pal][Sar]-NH2; disulfide 2-7)",0.059
9,"CC(=O)NCCCC[C@@H]1NC(=O)[C@H](Cc2c[nH]c3c(C)cccc23)NC(=O)[C@H]([C@@H](C)O)NC(=O)[C@H](CCCCNC(=O)COCCOCCNC(=O)COCCOCCNC(=O)[C@@H]2CCCN2C(=O)CC[C@H](NC(=O)CCCCCCCCCCCCCCCCC(=O)O)C(=O)O)NC(=O)[C@@H](NC(=O)[C@@H](CCCNC(=N)N)NC(C)=O)C(C)(C)SSC(C)(C)[C@@H](C(=O)N[C@@H](Cc2ccc(OCCN)cc2)C(=O)N[C@@H](Cc2ccc3ccccc3c2)C(=O)NC2(C(=O)N[C@@H](CCCCNC(C)=O)C(=O)N[C@@H](CC(N)=O)C(=O)N[C@@H](Cc3cccnc3)C(=O)N(C)CC(N)=O)CCOCC2)NC1=O [Example 95, MeCO-r-Pen*-K(PEG2PEG2PgEC18OH)-T-7MeW-K(Ac)-Pen*-AEF-2Nal-THP-K(Ac)-N-3Pya-Sar-CONH2] (Ac-[dR][Pen]K([AEEA-AEEA-Pro-γGlu-C18 diacid])T[Trp(7-Me)]K(Ac)[Pen][AEF][2Nal][Thp]K(Ac)N[3Pal][Sar]-NH2; disulfide 2-7)",0.14
